Consider 19 compounds from PubChem BioAssay (NCI).

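A five-concentration, 48-hour dose response in 96-well plates underlies each endpoint, interpolated linearly between surrounding concentrations. GI50 = concentration required for 50% inhibition of growth. The concentration for full growth arrest is given as TGI.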

Test systems include SF-268 CNS; IGROV1 ovarian; DU-145 prostate; SK-MEL-28 melanoma; 786-0 renal; RPMI-8226 leukemia; SF-295 CNS; MALME-3M melanoma; HOP-62 NSCLC; NCI-H226 lung; SNB-75 CNS.
Assay in all cases: growth of human tumour cells (NCI), 48 h

For the compound `CC(C)c1cc(C(C)C)c(S(=O)(=O)N/N=C2\CC3CCC2(C)C3(C)C)c(C(C)C)c1` (stereo not given), the TGI in the experiment on SF-268 CNS was > 100 µM; in the experiment with IGROV1 ovarian, > 100 µM; in the experiment on DU-145 prostate, > 100 µM; in the experiment on SK-MEL-28 melanoma, > 100 µM; in the experiment on 786-0 renal it was > 100 µM; in the experiment with RPMI-8226 leukemia it was 21.2 µM. In addition, the TGI in the experiment with SF-295 CNS is 63.9 µM; in the experiment with MALME-3M melanoma, > 100 µM; in the experiment with HOP-62 NSCLC, > 100 µM; in the experiment with NCI-H226 lung it was 80 µM.

Take `COc1cccc(O)c1-c1cc(=O)c2c(O)c(OC)c(OC)c(OC)c2o1`: the TGI in the experiment on SF-268 CNS is > 100 µM; with SNB-75 CNS it was 76.1 µM; in the experiment with IGROV1 ovarian, > 100 µM; with DU-145 prostate, 58.9 µM; in the experiment with SK-MEL-28 melanoma, > 100 µM; in the experiment with 786-0 renal, > 100 µM. The TGI with RPMI-8226 leukemia was 58.4 µM; with SF-295 CNS it was 76.6 µM; in the experiment on MALME-3M melanoma it was > 100 µM; in the experiment with HOP-62 NSCLC, 44.4 µM; in the experiment on NCI-H226 lung it was > 100 µM.

In the case of `O[C@@H]1CCCCN1Cc1cc2cc3c(cc2c2cc(OCc4ccccc4)ccc12)OCO3`, the GI50 in the experiment on SF-268 CNS was 1.26 µM; with SNB-75 CNS, 1.66 µM; in the experiment with IGROV1 ovarian, 1.68 µM; in the experiment on DU-145 prostate it was 1.63 µM; in the experiment with SK-MEL-28 melanoma, 1.55 µM; in the experiment with RPMI-8226 leukemia, 1.41 µM. Also, the results for the GI50 in the experiment on SF-295 CNS, in the experiment with MALME-3M melanoma and in the experiment with HOP-62 NSCLC were 1.59 µM, 1.66 µM and 1.55 µM, respectively. The TGI in the experiment on SF-268 CNS turned out to be 2.61 µM; in the experiment with SNB-75 CNS it was 3.08 µM; in the experiment with IGROV1 ovarian, 3.11 µM; in the experiment on DU-145 prostate it was 3.02 µM; in the experiment on SK-MEL-28 melanoma, 2.94 µM; with RPMI-8226 leukemia it was 3.38 µM. Besides, the results for the TGI in the experiment with SF-295 CNS, in the experiment with MALME-3M melanoma and in the experiment on HOP-62 NSCLC were 3.03 µM, 3.37 µM and 2.89 µM, respectively.

`COC(=O)C#CC1(O)C=CC(=O)C=C1`: the TGI is 3.18 µM in the experiment on SF-268 CNS; 18.1 µM with SNB-75 CNS; 2.85 µM with IGROV1 ovarian; 16.7 µM in the experiment with DU-145 prostate; 1.67 µM in the experiment with SK-MEL-28 melanoma; 1.82 µM in the experiment with 786-0 renal. In addition, the TGI is 2.67 µM with RPMI-8226 leukemia; > 41.8 µM with SF-295 CNS; 4.48 µM in the experiment with MALME-3M melanoma; 15.7 µM with HOP-62 NSCLC; 20.8 µM with NCI-H226 lung.

Regarding `COC1=C(OC)C(=O)c2cc(C)c(=O)c(C)cc2C1=O`, the TGI was 37.1 µM in the experiment with SF-268 CNS; 33 µM in the experiment with SNB-75 CNS; 33.2 µM with IGROV1 ovarian; 32.6 µM with DU-145 prostate; 31 µM in the experiment on SK-MEL-28 melanoma; 24.5 µM in the experiment with 786-0 renal. Also, the TGI in the experiment on RPMI-8226 leukemia was determined as 40.7 µM; in the experiment with SF-295 CNS, 48.5 µM; with MALME-3M melanoma it was 30.8 µM; in the experiment on HOP-62 NSCLC, 36.6 µM; in the experiment on NCI-H226 lung, 39.3 µM.

As for `Cc1nnc(NS(=O)(=O)c2ccc(N=Nc3c(O)c(C(=O)O)cc4ccccc34)cc2)s1`, the TGI with SF-268 CNS, in the experiment on SNB-75 CNS, in the experiment with IGROV1 ovarian, with DU-145 prostate, with SK-MEL-28 melanoma and in the experiment on 786-0 renal was > 100 µM throughout. Also, the TGI with RPMI-8226 leukemia, with SF-295 CNS, with MALME-3M melanoma, with HOP-62 NSCLC and in the experiment on NCI-H226 lung was > 100 µM in each case.

On to `CCOC(=O)c1sc(N)nc1N1CCCC1`, for which the TGI in the experiment with SNB-75 CNS, in the experiment with IGROV1 ovarian, in the experiment on DU-145 prostate, with SK-MEL-28 melanoma, with 786-0 renal and in the experiment with RPMI-8226 leukemia was > 100 µM in each case. Besides, the TGI in the experiment with SF-295 CNS, with MALME-3M melanoma, with HOP-62 NSCLC and in the experiment on NCI-H226 lung was > 100 µM each time.

Regarding `CCOC(=O)n1c(=O)nc2c3c(ncn21)Oc1c(c(-c2ccccc2)nn1-c1ccccc1)C3c1ccc(Cl)cc1` (stereo not given), the TGI in the experiment on SF-268 CNS was determined as 2.92 µM; with SNB-75 CNS, 4.75 µM; with DU-145 prostate it was 3.09 µM; with SK-MEL-28 melanoma, 3.18 µM; in the experiment with 786-0 renal, 2.85 µM; with RPMI-8226 leukemia, 3.3 µM. Besides, the TGI in the experiment on SF-295 CNS stood at 3.26 µM; with MALME-3M melanoma, 3.24 µM; in the experiment on HOP-62 NSCLC, 3.15 µM; in the experiment with NCI-H226 lung, 2.99 µM.

Consider `COc1nc2c(c(=O)[nH]1)N=C(c1ccc([N+](=O)[O-])cc1)CC(c1ccccc1)N2` (stereo not given), for which the TGI in the experiment on SNB-75 CNS, in the experiment on IGROV1 ovarian, in the experiment with DU-145 prostate, in the experiment on SK-MEL-28 melanoma, in the experiment on 786-0 renal and in the experiment on RPMI-8226 leukemia was > 100 µM in each case. Moreover, the TGI with SF-295 CNS, in the experiment with MALME-3M melanoma, with HOP-62 NSCLC and with NCI-H226 lung was > 100 µM each time.

On to `O=[N+]([O-])c1ccc(-c2ccc([C@H]3CC(c4cc(F)c(Cl)cc4Cl)=NN3)o2)cc1`, for which the TGI in the experiment on SF-268 CNS is > 100 µM; in the experiment on SNB-75 CNS, 71.4 µM; with IGROV1 ovarian it was > 100 µM; in the experiment with DU-145 prostate, > 100 µM; with 786-0 renal, > 100 µM; with RPMI-8226 leukemia, > 100 µM. For the same compound, the TGI is > 100 µM in the experiment with SF-295 CNS, > 100 µM in the experiment with MALME-3M melanoma, > 100 µM with HOP-62 NSCLC and 58.9 µM in the experiment on NCI-H226 lung.

On to `COc1cc(N(CCC#N)CCC#N)ccc1/C(N=Nc1cccc([N+](=O)[O-])c1)=N\NC(=O)c1ccc(C)cc1`, for which the TGI in the experiment with SF-268 CNS, with IGROV1 ovarian, in the experiment with DU-145 prostate, in the experiment on SK-MEL-28 melanoma, with 786-0 renal and in the experiment with RPMI-8226 leukemia was > 100 µM throughout. For the same compound, the TGI in the experiment on SF-295 CNS, in the experiment with MALME-3M melanoma, in the experiment with HOP-62 NSCLC and with NCI-H226 lung was > 100 µM throughout.

For `O=c1cc(O)c1=O`, the TGI in the experiment on SF-268 CNS, with SNB-75 CNS, with IGROV1 ovarian, in the experiment on DU-145 prostate, in the experiment with SK-MEL-28 melanoma and with RPMI-8226 leukemia was > 100 µM throughout. Also, the TGI in the experiment on SF-295 CNS, with MALME-3M melanoma, with HOP-62 NSCLC and in the experiment with NCI-H226 lung was > 100 µM each time.

On to `COC(=O)c1nc2n(n1)-c1ccccc1C(=O)N(Cc1ccccc1)C2`, for which the TGI in the experiment with SF-268 CNS, with IGROV1 ovarian, with DU-145 prostate, in the experiment on SK-MEL-28 melanoma, in the experiment on 786-0 renal and in the experiment with RPMI-8226 leukemia was > 100 µM in each case. Moreover, the TGI in the experiment on SF-295 CNS, in the experiment with MALME-3M melanoma, with HOP-62 NSCLC and in the experiment with NCI-H226 lung was > 100 µM in each case.

As for `O=C(c1ccccc1)N1N=C(C(F)(F)F)CC1(O)C(F)(F)F` (stereo not given), the TGI in the experiment with SF-268 CNS, in the experiment on SNB-75 CNS, in the experiment on DU-145 prostate, in the experiment on SK-MEL-28 melanoma, in the experiment with 786-0 renal and with RPMI-8226 leukemia was > 100 µM in each case. The TGI with SF-295 CNS, in the experiment on MALME-3M melanoma, in the experiment on HOP-62 NSCLC and in the experiment on NCI-H226 lung was > 100 µM throughout.

In the case of `COc1ccc(C2OC2C(=O)C23CC4CC(CC(C4)C2)C3)cc1` (stereo not given), the TGI in the experiment on SF-268 CNS, with IGROV1 ovarian, with DU-145 prostate, in the experiment on SK-MEL-28 melanoma, with 786-0 renal and with RPMI-8226 leukemia was > 100 µM in each case. The TGI in the experiment with SF-295 CNS, in the experiment with MALME-3M melanoma, with HOP-62 NSCLC and in the experiment on NCI-H226 lung was > 100 µM in each case.

Regarding `CC(C(=O)NCNC(=O)c1ccccc1)C(=O)NCc1ccccc1` (stereo not given), the TGI with SF-268 CNS, in the experiment on SNB-75 CNS, with IGROV1 ovarian, in the experiment with DU-145 prostate, in the experiment with 786-0 renal and in the experiment with RPMI-8226 leukemia was > 100 µM in each case. The TGI with SF-295 CNS, in the experiment with MALME-3M melanoma and with NCI-H226 lung was > 100 µM in each case.

As for `CC(=O)OCCn1c(Cc2ccc(Cl)cc2)nn(C(C)=O)c1=O`, the TGI in the experiment on SF-268 CNS, in the experiment with IGROV1 ovarian, with DU-145 prostate, in the experiment with SK-MEL-28 melanoma, in the experiment with 786-0 renal and in the experiment with RPMI-8226 leukemia was > 100 µM in each case. Also, the TGI with SF-295 CNS, in the experiment on MALME-3M melanoma and in the experiment on NCI-H226 lung was > 100 µM in each case.

In the case of `CCOP(=O)(OCC)/C(F)=C/c1ccc(F)cc1`, the TGI in the experiment on SF-268 CNS, with SNB-75 CNS, in the experiment on IGROV1 ovarian, with DU-145 prostate, in the experiment on SK-MEL-28 melanoma and in the experiment with 786-0 renal was > 100 µM each time. Besides, the TGI with RPMI-8226 leukemia, in the experiment on SF-295 CNS, in the experiment on MALME-3M melanoma and in the experiment on HOP-62 NSCLC was > 100 µM in each case.

For the compound `CC12CCC(C(=Nc3ccc([N+](=O)[O-])cc3)C1=O)C2(C)C` (stereo not given), the TGI is 47.3 µM in the experiment with SF-268 CNS; 57.3 µM in the experiment with IGROV1 ovarian; 79.5 µM with DU-145 prostate; 37.4 µM in the experiment with SK-MEL-28 melanoma; 78.5 µM in the experiment with 786-0 renal; 52.3 µM in the experiment on RPMI-8226 leukemia. The TGI with SF-295 CNS was > 100 µM; in the experiment on MALME-3M melanoma it was 30 µM; with HOP-62 NSCLC it was 81.9 µM; with NCI-H226 lung, > 100 µM.
